Measured values taken from patent publication US11952365B2, “Anti-viral compounds” (Aligos Therapeutics, Inc., priority 2020, dated 2024).
Read-outs that look alike come from different tables or passages of the source.

What was measured:
HRV3C = HRV3C (Human rhinovirus 14, UniProt P03303); test: HRV3C protease assay (duplex, SAMDI-MS); type: biochemical, HRV; details: 30 mins preincubation
Method in brief: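 Duplex format with 3CLpro; 30 min enzyme–compound preincubation, 30 min reaction with two peptide substrates, ambient temp. Stop: 0.5% formic acid, neutralized with 1% NaHCO3 (finals). Readout SAMDI-MS, product AUC over internal standard AUC; four-parameter IC50.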

[1] = test system: human beta-coronavirus OC43; test: microbe, parasite or virus in culture; type: cell-based; details: Betacoronavirus 1, OC43, HeLa, 144 h, OC43 in HeLa cells, 6 days at 33° C., class symbols; read-out: EC50
[2] = Cytotoxicity plates without OC43 virus (cell-titer-glo); type: cell-based, human; details: human; HeLa cells without OC43 virus, class symbols
Method in brief: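 HeLa cells seeded overnight, then treated with serially diluted compounds in 2% FBS EMEM, uninfected, in parallel with the OC43 antiviral plates. Incubated 6 days at 33 °C; viability read by CellTiter-Glo luminescence.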

[3] = test system: SARS-CoV-2-GHB-03021/2020; test: SARS-CoV-2 Infection Model in Huh7 Cells; type: cell-based; details: Severe acute respiratory syndrome coronavirus 2, Huh-7, 96 h, SARS-CoV-2, day 4 p.i., MTS, class symbols
[4] = test system: SARS-CoV-2-GHB-03021/2020; test: microbe, parasite or virus in culture; type: cell-based; details: Severe acute respiratory syndrome coronavirus 2, Vero C1008, 96 h; read-out: VeroE6 + CP (EC50)
human cathepsin L = target: T1, human cathepsin L (Homo sapiens, UniProt P07711); test: cathepsin L assay; type: biochemical; details: 10 pM human cathepsin L, Z-FR-AMC 2 μM, class symbols
T1 construct: purchased R&D Systems
Method in brief: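 Human cathepsin L at 10 pM was preincubated 30 min with compound, then reaction started with Z-FR-AMC (2 μM final). Fluorescence (355/460 nm) read every 2 min for 30 min; IC50 from four-parameter curve fit.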

in vitro [5] = details: human
in vitro [6] = details: African green monkey, VeroE6 + CP (CC50), Vero E6-eGFP cells with CP-100356, absence of virus, MTS
3CLpro = 3CLpro (Severe acute respiratory syndrome coronavirus 2, UniProt P0DTD1); test: SARS-CoV-2 3CLpro protease assay (duplex, SAMDI-MS); type: biochemical; set-up: For the duplex assay, 3CLpro and HRV3C was added; details: 30 mins preincubation, class symbols
[7] = HRV3C, bound, read-out: HRV IC50
[8] = 3CLpro, read-out: SARS-Cov-2 IC50
[9] = HRV3C, class symbols, read-out: HRV IC50

SMILES	IC50 (HRV3C; [7])	EC50 [1]	CC50 at 6 days [2]	EC50 [3]	EC50 [4]	IC50 (human cathepsin L)	CC50 (in vitro [5])	CC50 (in vitro [6]; numeric bounds)	IC50 (3CLpro; [8])	IC50 (HRV3C; [9])	CC50 (in vitro [6]; class symbols)	IC50 (HRV3C; HRV IC50, HRV3C, class symbols)	IC50 (HRV3C; HRV IC50, HRV3C, bound)	IC50 (3CLpro; SARS-Cov-2 IC50, 3CLpro)
CC(C)C(=O)OCC(=O)[C@H](C[C@@H]1CCNC1=O)NC(=O)[C@@H]1[C@H]2CCC[C@H]2CN1C(=O)c1cc2c(Cl)cc(Cl)cc2[nH]1 [Compound 125, (3S)-3-{[(1S,3aR,6aS)-2-(4,6-dichloro-1H-indole-2-carbonyl)-hexahydro-1H-cyclopenta[c]pyrrol-1-yl]formamido}-2-oxo-4-[(3S)-2-oxopyrrolidin-3-yl]butyl 2-methylpropanoate]	> 10 µM	< 0.1 µM	> 10 µM	< 1 µM	< 1 µM	≥ 10 µM	> 10 µM	> 50 µM	0.2 to 2 µM					
O=C1NCC[C@H]1C[C@H](NC(=O)[C@@H]1[C@H]2CCC[C@H]2CN1C(=O)c1cc2c(OC(F)F)cc(Cl)cc2[nH]1)C(=O)CO [Compound 126, (1S,3aR,6aS)-2-[6-chloro-4-(difluoromethoxy)-1H-indole-2-carbonyl]-N-[(2S)-4-hydroxy-3-oxo-1-[(3S)-2-oxopyrrolidin-3-yl]butan-2-yl]-hexahydro-1H-cyclopenta[c]pyrrole-1-carboxamide]		< 0.1 µM	> 10 µM	1 to 10 µM	1 to 10 µM	≥ 10 µM	> 50 µM	> 50 µM	< 0.02 µM	2 to 20 µM				
CC1(C)[C@@H]2[C@@H](C(=O)N[C@@H](C[C@@H]3CCNC3=O)C(=O)CO)N(C(=O)c3cc4c(Cl)cc(Cl)cc4[nH]3)C[C@@H]21 [Compound 127, (1R,2S,5S)-3-(4,6-dichloro-1H-indole-2-carbonyl)-N-[(2S)-4-hydroxy-3-oxo-1-[(3S)-2-oxopyrrolidin-3-yl]butan-2-yl]-6,6-dimethyl-3-azabicyclo[3.1.0]hexane-2-carboxamide]		0.1 to 1 µM	> 10 µM	< 1 µM	< 1 µM	≥ 10 µM	> 10 µM	> 50 µM	0.02 to 0.2 µM	2 to 20 µM				
O=C1NCC[C@H]1C[C@H](NC(=O)[C@@H]1[C@H]2CCC[C@H]2CN1C(=O)c1cc2c(Cl)ccc(OCc3ccccc3)c2[nH]1)C(=O)CO [Compound 128, (1S,3aR,6aS)-2-[7-(benzyloxy)-4-chloro-1H-indole-2-carbonyl]-N-[(2S)-4-hydroxy-3-oxo-1-[(3S)-2-oxopyrrolidin-3-yl]butan-2-yl]-hexahydro-1H-cyclopenta[c]pyrrole-1-carboxamide]	> 10 µM	< 0.1 µM	> 10 µM	< 1 µM	1 to 10 µM	≥ 10 µM	> 10 µM		0.02 to 0.2 µM		> 10 µM			
O=C1NCC[C@H]1C[C@H](NC(=O)[C@@H]1[C@H]2CCC[C@H]2CN1C(=O)c1cc2c(Cl)cc(Oc3ccccc3)cc2[nH]1)C(=O)CO [Compound 129, (1S,3aR,6aS)-2-(4-chloro-6-phenoxy-1H-indole-2-carbonyl)-N-[(2S)-4-hydroxy-3-oxo-1-[(3S)-2-oxopyrrolidin-3-yl]butan-2-yl]-hexahydro-1H-cyclopenta[c]pyrrole-1-carboxamide]	> 10 µM	< 0.1 µM	> 10 µM	< 1 µM	< 1 µM	≥ 10 µM	> 10 µM		< 0.02 µM		> 10 µM			
O=C1NCC[C@H]1C[C@H](NC(=O)[C@@H]1[C@H]2CCC[C@H]2CN1C(=O)c1cc2c(Cl)cc(OCc3ccccc3)cc2[nH]1)C(=O)CO [Compound 130, (1S,3aR,6aS)-2-(6-(benzyloxy)-4-chloro-1H-indole-2-carbonyl)-N—((S)-4-hydroxy-3-oxo-1-((S)-2-oxopyrrolidin-3-yl)butan-2-yl)octahydrocyclopenta[c]pyrrole-1-carboxamide]	> 10 µM	< 0.1 µM	> 10 µM	< 1 µM	< 1 µM	≥ 10 µM	> 10 µM		0.02 to 0.2 µM		> 10 µM			
CC(C)(C)C(=O)OCC(=O)[C@H](C[C@@H]1CCNC1=O)NC(=O)[C@@H]1[C@H]2CCC[C@H]2CN1C(=O)c1cc2c(Cl)cc(Cl)cc2[nH]1 [Compound 132, (3S)-3-{[(1S,3aR,6aS)-2-(4,6-dichloro-1H-indole-2-carbonyl)-hexahydro-1H-cyclopenta[c]pyrrol-1-yl]formamido}-2-oxo-4-[(3S)-2-oxopyrrolidin-3-yl]butyl 2,2-dimethylpropanoate]	> 10 µM	< 0.1 µM	1 to 10 µM	< 1 µM	< 1 µM	≥ 10 µM	> 10 µM		0.2 to 2 µM		> 10 µM			
O=C1NCC[C@H]1C[C@H](NC(=O)[C@@H]1[C@H]2CCC[C@H]2CN1C(=O)c1cc2c(OCc3ccccc3)cccc2[nH]1)C(=O)CO [Compound 133, (1S,3aR,6aS)-2-[4-(benzyloxy)-1H-indole-2-carbonyl]-N-[(2S)-4-hydroxy-3-oxo-1-[(3S)-2-oxopyrrolidin-3-yl]butan-2-yl]-hexahydro-1H-cyclopenta[c]pyrrole-1-carboxamide]	> 10 µM	< 0.1 µM	> 10 µM	< 1 µM	< 1 µM	≥ 10 µM	> 50 µM	> 50 µM	< 0.02 µM					
COc1cccc2[nH]c(C(=O)N3C[C@@H]4CCC[C@@H]4[C@H]3C(=O)N[C@@H](C[C@@H]3CCNC3=O)C(=O)C(=O)NCCOc3ccccc3)cc12 [Compound 134]		0.1 to 1 µM	> 10 µM	1 to 10 µM	1 to 10 µM	≥ 10 µM	> 50 µM	> 50 µM	< 0.02 µM	2 to 20 µM				
O=C1NCC[C@H]1C[C@H](NC(=O)[C@@H]1[C@H]2[C@H]3CC[C@H](C3)[C@H]2CN1C(=O)c1cc2c(Cl)cc(Cl)cc2[nH]1)C(=O)CO [Compound 135, (1S,3aR,4R,7S,7aS)-2-(4,6-dichloro-1H-indole-2-carbonyl)-N—((S)-4-hydroxy-3-oxo-1-((S)-2-oxopyrrolidin-3-yl)butan-2-yl)octahydro-1H-4,7-methanoisoindole-1-carboxamide]		0.1 to 1 µM	> 10 µM	< 1 µM	< 1 µM	≥ 10 µM	> 10 µM		0.02 to 0.2 µM		> 10 µM	2 to 20 µM		
O=C1NCC[C@H]1C[C@H](NC(=O)[C@@H]1[C@@H]2[C@H](CN1C(=O)c1cc3c(Cl)cc(Cl)cc3[nH]1)[C@@H]1C=C[C@H]2C1)C(=O)CO [Compound 136, (1R,2S,3S,6R,7S)-4-(4,6-dichloro-1H-indole-2-carbonyl)-N-[(2S)-4-hydroxy-3-oxo-1-[(3S)-2-oxopyrrolidin-3-yl]butan-2-yl]-4-azatricyclo[5.2.1.0^{2,6}]dec-8-ene-3-carboxamide]		< 0.1 µM	> 10 µM	< 1 µM	< 1 µM	≥ 10 µM	> 50 µM	> 50 µM	< 0.02 µM	2 to 20 µM				
O=C1NCC[C@H]1C[C@H](NC(=O)[C@@H]1[C@H]2CCC[C@H]2CN1C(=O)c1cc2c(Cl)ccc(Oc3ccccc3)c2[nH]1)C(=O)CO [Compound 137, (1S,3aR,6aS)-2-(4-chloro-7-phenoxy-1H-indole-2-carbonyl)-N-[(2S)-4-hydroxy-3-oxo-1-[(3S)-2-oxopyrrolidin-3-yl]butan-2-yl]-hexahydro-1H-cyclopenta[c]pyrrole-1-carboxamide]		< 0.1 µM	> 10 µM	< 1 µM	1 to 10 µM	≥ 10 µM	> 10 µM	> 50 µM					> 10 µM	0.02 to 0.2 µM
O=C1NCC[C@H]1C[C@H](NC(=O)[C@@H]1[C@H]2CCC[C@H]2CN1C(=O)c1cc2c(OC3CC3)cc(Cl)cc2[nH]1)C(=O)CO [Compound 138, (1S,3aR,6aS)-2-(6-chloro-4-cyclopropoxy-1H-indole-2-carbonyl)-N-[(2S)-4-hydroxy-3-oxo-1-[(3S)-2-oxopyrrolidin-3-yl]butan-2-yl]-hexahydro-1H-cyclopenta[c]pyrrole-1-carboxamide]		< 0.1 µM	> 10 µM	< 1 µM	1 to 10 µM	≥ 10 µM	> 50 µM	> 50 µM	< 0.02 µM	2 to 20 µM				
